This is an account of results in patent US20090312413A1, “Composition Comprising Tanshinone Compounds Isolated From The Extract Of Salviae Miltiorrhizae Radix For Treating Or Preventing Cognitive Dysfunction And The Use Thereof” (DIGITAL BIOTECH CO., LTD., priority 2005, published 2009).

Series [1] has as its system HT 22 mouse neuronal cell line. Nature of the series: Inhibition test of beta amyloid toxicity (MTT). The format is cell-based. As to conditions: HT22 cells, 25 μM aggregated beta amyloid, 18 hours. The protocol:
HT 22 mouse neuronal cell line was incubated in DMEM (Dulbecco's Modified Eagle's Medium, Gibco-BRL) medium supplemented with 10% FBS (Fetal Bovine Serum, Hyclone) and 1% penicillin/streptomycin (Sigma Co.) Prior to test, HT22 cell was incubated on 96 well plates with a density of 5×10^3 cell/well and further incubated in serum free DMEM medium for 1 hour before the treatment of test sample. Various concentration of diethyl ether extract prepared in Example 1 used as a test sample was added thereto and incubated for 1 hour. Aggregated beta amyloid (US peptide) was treated thereto to the concentration of 25 μM and incubated for 18 hours to induce cell necrosis. 5 mg/ml of MTT (3-(4,5-dimethyl-2-thiazolyl)-2,5-diphenyl-2H-tetrazolium bromide) solution was added each well with 15 μl/well and the well was incubated for 4 hours. Dissolving buffer solution (10% SDS, 50% dimethyl formamide, pH 4.7) was added to each well with 100 μl/well and reacted for overnight. 18 hours after the reaction, the absorbance of solution was determined by microplate reader (SAFIRE, TECAN) at 570 nm/630 nm wavelength (Gillardon, F. et al., Brain Research, 706(1) pp 169-172, 1996).

In series [2] the test system is mouse brain. Nature of the series: Brain staining of AD acute model (Cresyl violet, ChAT, GFAP). The format is in vivo. As to the method: At the end of the experiment, the brain of animals was delivered and kept in 10% formalin solution to staining. At the end of behavior test, the mouse brain was delivered, kept in 10% formalin solution for 24 hours and transferred to 30% sucrose solution. After fixing the brain, the brain was performed to coronal section with a width of 40 μm using by cryostat. The sliced brain was performed to Cresyl violet staining to confirm the injury of brain neuronal cell, to ChAT staining to confirm the injury of cholinergic neuron and to GFAP staining to confirm the activation of astrocytes. After the tissue was placed on gelatin-coated slide to stain with Cresyl violet, the tissue was performed to dehydration using ethanol. The tissue was incubated for about 3 minutes and dipped into 0.5% Cresyl Violet solution for 30 mins. After the solution was performed to […] with ethanol, the slice was dipped into xylene for 3 minutes. The dried tissue was fixed with Canada balsam mounting medium. In the washing process between all the antibody incubation, PBST was used to washing tissues. To reduce the activity of endogenous peroxidase activity, the tissue was pretreated with 0.5% H2O2 and then treated with 5% FBS at room temperature for 1 hour to remove non-specific binding. The tissue was incubated at 4° C. for overnight using by mouse anti-GFAP (1:200) monoclonal antibody and goat-anti-ChAT (1:200) polyclonal antibody. A horse radish peroxidase-conjugated anti-mouse IgG and anti-goat IgG secondary antibody (1:600) was incubated at room temperature for 1 hour and detected by DAB kit after the incubation.

Series [3] is described as follows: Oral administration toxicity test. In kind it is in vivo. As to conditions: 2000 mg/kg.
The subject of series [4] is mice directly treated with beta amyloid. Nature of the series: AD acute model, Y maze test. The format is in vivo, mouse. Particulars: 50 mg/kg oral, mice given beta amyloid intracerebro-ventricularly. As to the method:
For passive avoidance test, male ICR mouse weighing 25 g purchased from Samtaco Co. was bred with five mice per cage and the cage was kept with following condition maintaining the temperature of 22±2° C. and the relative humidity of […] under the regularly controlled light/dark condition with an interval of 12 hours. Synthetic beta amyloid 1-42 (BACHEM) was dissolved in DMSO in order to be 250 μM solution and diluted with PBS to 10 nM and aggregated at 37° C. for four days (Passive Avoidance test) or six days (Y maze test). Aggregated beta amyloid 1-42 was administrated into the mice according to the procedure disclosed in the literature (Lausen & Belknap, J. Pharmacol. Methods, 16 pp 355-357, 1986). 50 μl of aggregated beta amyloid 1-42 was administrated into the 2.4 mm depth of bregma region with 50 μl of Hamilton micro-syringe equipped with 26-gauge needle. The behavior tests were divided into Y maze test and PA (passive avoidance) test after the beta amyloid administration. […] The entering order of mice in the pathway was observed and the entering latency time was determined when four limbs was entered within the pathway. To determine the spatial memory, the determined spontaneous alteration behavior was calculated by following empirical formula 1 and the actual alteration was assigned to one time at the time that mice was entered three pathways continuously. […]

For series [5], the system named is mice administered aggregated beta amyloid 1-42. Nature of the series: AD acute model, passive avoidance test. In kind it is in vivo, mouse. As to conditions: oral, mice given beta amyloid, p<0.05. As to the method:
For passive avoidance test, male ICR mouse weighing 25 g purchased from Samtaco Co. was bred with five mice per cage and the cage was kept with following condition maintaining the temperature of 22±2° C. and the relative humidity of […] under the regularly controlled light/dark condition with an interval of 12 hours.
Synthetic beta amyloid 1-42 (BACHEM) was dissolved in DMSO in order to be 250 μM solution and diluted with PBS to 10 nM and aggregated at 37° C. for four days (Passive Avoidance test) or six days (Y maze test).
Aggregated beta amyloid 1-42 was administrated into the mice according to the procedure disclosed in the literature (Lausen & Belknap, J. Pharmacol. Methods, 16 pp 355-357, 1986).
50 μl of aggregated beta amyloid 1-42 was administrated into the 2.4 mm depth of bregma region with 50 μl of Hamilton micro-syringe equipped with 26-gauge needle. The behavior tests were divided into Y maze test and PA (passive avoidance) test after the beta amyloid administration. Y maze test was performed 2 days after the administration and PA test was 3 days after the administration. Each test was done with more than 10 mice. […]
At 24 hours after the training session, the identical experiment was performed again with mouse to measure the latency time staying at the light chamber. […] Latency to enter the dark compartment from the light compartment was measured as a step through latency. […]

Molecules are shown by their SMILES.

For the molecule `CC(C)C1=Cc2ccc3c(c2C(=O)C1=O)CCCC3(C)C` [Miltirone], in series [1], the “inhibitory effect on the toxicity of beta amyloid” value (from here on “inhibitory effect on the toxicity”) is “did not inhibit”.

With `Cc1coc2c1C(=O)C(=O)c1c-2ccc2c1CCCC2(C)C` [tanshinone IIA], the “inhibitory effect on the toxicity” value in series [1] is listed as “mere inhibitory effect”. In series [2] (ChAT staining), the “injury of cholinergic neuron caused by beta amyloid” value was “recovered the injury of cholinergic neuron”. The “injury of memory learning correlated with hippocampus injury (brain staining)” value in series [2] (Cresyl violet staining, mouse brain after beta amyloid) is reported as “significantly recovered”. Moreover, the “activity of astrocyte caused by beta amyloid” value in series [2] (GFAP staining) is listed as “reduced the increased activity of astrocyte”. For the same molecule, the “toxicity at oral administration test” value in series [3] is on record as “no toxicity”. Besides, in series [4], the “recovery of memory learning disorder (spontaneous alteration, Y maze)” value is recorded as “recovered”. Further, the “latency time (step through latency, passive avoidance)” value in series [5] is “significantly increased”.

In the case of `CC(C)C1=Cc2ccc3c(c2C(=O)C1=O)C=CCC3(C)C` [1,2-Didehydromiltirone, 1,2-didehydromiltirone], the “inhibitory effect on the toxicity” value in series [1] is on record as “did not inhibit”.

As for `Cc1cccc2c3c(ccc12)C1=C(C(=O)C3=O)[C@@H](C)CO1` [dihydrotanshinone I], in series [1], the “inhibitory effect on the toxicity” value is given as “did not show any inhibitory effect”.

With `Cc1coc2c1C(=O)C(=O)c1c-2ccc2c(C)cccc12` [tanshinone I], the “inhibitory effect on the toxicity” value in series [1] is given as “did not show any inhibitory effect”.
